# Key:
# [1] = target: T1, KRAS WT (Homo sapiens, UniProt P01116); assay: HTRF nucleotide exchange assay, KRAS WT; format: biochemical; details: HTRF nucleotide exchange assay (NEA), class symbols
# T1 construct: aa1-188 KRAS WT
# [2] = target: T2, KRAS G12D (Homo sapiens, UniProt P01116, G12D); assay: HTRF nucleotide exchange assay, KRAS G12D; format: biochemical; details: HTRF nucleotide exchange assay (NEA), class symbols
# T2 construct: aa1-188 KRAS WT, HRAS WT, NRAS WT, or KRAS containing the G12D
# T2 sequence (P01116 1-188 isoform P01116-2 G12D): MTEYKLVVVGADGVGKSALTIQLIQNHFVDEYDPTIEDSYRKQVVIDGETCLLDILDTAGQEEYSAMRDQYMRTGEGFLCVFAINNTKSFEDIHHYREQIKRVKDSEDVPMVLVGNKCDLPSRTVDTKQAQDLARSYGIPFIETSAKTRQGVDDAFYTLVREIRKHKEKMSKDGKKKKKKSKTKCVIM
# T1 sequence (P01116 1-188 isoform P01116-2): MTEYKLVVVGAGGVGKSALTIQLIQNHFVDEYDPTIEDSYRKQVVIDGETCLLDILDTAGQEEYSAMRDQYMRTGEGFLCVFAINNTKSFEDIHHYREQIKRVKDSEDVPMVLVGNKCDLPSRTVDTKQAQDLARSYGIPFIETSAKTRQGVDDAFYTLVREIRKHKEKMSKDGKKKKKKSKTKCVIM
IC50 [1] [nM],IC50 [2] [nM],Structure (SMILES)
≤ 10,≤ 10,"CCc1c(F)ccc2cc(O)cc(-c3c(F)c4nc(OC[C@@H]5CCN5)nc(N5CCOCC(C)(O)C5)c4c4cn(C)nc34)c12 (stereo partly drawn) [Example 156, 4-[4-(8-ethyl-7-fluoro-3-hydroxy-1-naphthyl)-5-fluoro-2-methyl-7-[[(2S)-azetidin-2-yl]methoxy]pyrazolo[4,3-f]quinazolin-9-yl]-6-methyl-1,4-oxazepan-6-ol]"
≤ 10,≤ 10,"CCc1c(F)ccc2cc(O)cc(-c3c(F)c4nc(OCC5(CN(C)C)CC5)nc(N5CCOCC(C)(O)C5)c4c4cn(C)nc34)c12 (stereo not drawn) [Example 157, 4-[7-[[1-[(dimethylamino)methyl]cyclopropyl]methoxy]-4-(8-ethyl-7-fluoro-3-hydroxy-1-naphthyl)-5-fluoro-2-methyl-pyrazolo[4,3-f]quinazolin-9-yl]-6-methyl-1,4-oxazepan-6-ol]"
≤ 10,≤ 10,"CCc1c(F)ccc2cc(O)cc(-c3c(F)c4nc(OC[C@@H]5CCN5C)nc(N5CCOCC(C)(O)C5)c4c4cn(C)nc34)c12 (stereo partly drawn) [Example 158, 4-[4-(8-ethyl-7-fluoro-3-hydroxy-1-naphthyl)-5-fluoro-2-methyl-7-[[(2S)-1-methylazetidin-2-yl]methoxy]pyrazolo[4,3-f]quinazolin-9-yl]-6-methyl-1,4-oxazepan-6-ol]"
≤ 10,≤ 10,"CCc1c(F)ccc2cc(O)cc(-c3c(F)c4nc(OC[C@]5(C)CCCN5)nc(N5CCOCC(C)(O)C5)c4c4cn(C)nc34)c12 (stereo partly drawn) [Example 159, 4-[4-(8-ethyl-7-fluoro-3-hydroxy-1-naphthyl)-5-fluoro-2-methyl-7-[[(2S)-2-methylpyrrolidin-2-yl]methoxy]pyrazolo[4,3-f]quinazolin-9-yl]-6-methyl-1,4-oxazepan-6-ol]"
≤ 10,≤ 10,"CCc1c(F)ccc2cc(O)cc(-c3c(F)c4nc(OCC56CCCN5CCC6)nc(N5CCOCC(C)(O)C5)c4c4cn(C)nc34)c12 (stereo not drawn) [Example 160, 4-[4-(8-ethyl-7-fluoro-3-hydroxy-1-naphthyl)-5-fluoro-7-(1,2,3,5,6,7-hexahydropyrrolizin-8-ylmethoxy)-2-methyl-pyrazolo[4,3-f]quinazolin-9-yl]-6-methyl-1,4-oxazepan-6-ol]"
≤ 10,≤ 10,"CCc1c(F)ccc2cc(O)cc(-c3c(F)c4nc(OC[C@]5(C)CCCN5C)nc(N5CCOCC(C)(O)C5)c4c4cn(C)nc34)c12 (stereo partly drawn) [Example 161, 4-[4-(8-ethyl-7-fluoro-3-hydroxy-1-naphthyl)-5-fluoro-2-methyl-7-[[(2S)-1,2-dimethylpyrrolidin-2-yl]methoxy]pyrazolo[4,3-f]quinazolin-9-yl]-6-methyl-1,4-oxazepan-6-ol]"
≤ 10,≤ 10,"CCc1c(F)ccc2cc(O)cc(-c3c(F)c4nc(OCC5(CN6CCOCC6)CC5)nc(N5CCOCC(C)(O)C5)c4c4cn(C)nc34)c12 (stereo not drawn) [Example 162, 4-[4-(8-ethyl-7-fluoro-3-hydroxy-1-naphthyl)-5-fluoro-2-methyl-7-[[1-(morpholinomethyl)cyclopropyl]methoxy]pyrazolo[4,3-f]quinazolin-9-yl]-6-methyl-1,4-oxazepan-6-ol]"
≤ 10,≤ 10,"CCc1c(F)ccc2cc(O)cc(-c3c(F)c4nc(OCC5(CF)COC5)nc(N5CCOCC(C)(O)C5)c4c4cn(C)nc34)c12 (stereo not drawn) [Example 163, 4-[4-(8-ethyl-7-fluoro-3-hydroxy-1-naphthyl)-5-fluoro-7-[[3-(fluoromethyl)oxetan-3-yl]methoxy]-2-methyl-pyrazolo[4,3-f]quinazolin-9-yl]-6-methyl-1,4-oxazepan-6-ol]"
10 to 100,≤ 10,"CCc1c(F)ccc2cc(O)cc(-c3c(F)c4nc(OCC5(C#N)CCOC5)nc(N5CCOCC(C)(O)C5)c4c4cn(C)nc34)c12 (stereo not drawn) [Example 164, 3-[[4-(8-ethyl-7-fluoro-3-hydroxy-1-naphthyl)-5-fluoro-9-(6-hydroxy-6-methyl-1,4-oxazepan-4-yl)-2-methyl-pyrazolo[4,3-f]quinazolin-7-yl]oxymethyl]tetrahydrofuran-3-carbonitrile]"
10 to 100,≤ 10,"CCc1c(F)ccc2cc(O)cc(-c3c(F)c4nc(OCC56COC(COC)(C5)C6)nc(N5CCOCC(C)(O)C5)c4c4cn(C)nc34)c12 (stereo not drawn) [Example 165, 4-[4-(8-ethyl-7-fluoro-3-hydroxy-1-naphthyl)-5-fluoro-7-[[1-(methoxymethyl)-2-oxabicyclo[2.1.1]hexan-4-yl]methoxy]-2-methyl-pyrazolo[4,3-f]quinazolin-9-yl]-6-methyl-1,4-oxazepan-6-ol]"
≤ 10,≤ 10,"CCc1c(F)ccc2cc(O)cc(-c3c(F)c4nc(OCC5(CN(CC)CC)CC5)nc(N5CCOCC(C)(O)C5)c4c4cn(C)nc34)c12 (stereo not drawn) [Example 166, -[7-[[1-(diethylaminomethyl)cyclopropyl]methoxy]-4-[8-ethyl-7-fluoro-3-(methoxymethoxy)-1-naphthyl]-5-fluoro-2-methyl-pyrazolo[4,3-f]quinazolin-9-yl]-6-methyl-1,4-oxazepan-6-ol]"
100 to 10000,≤ 10,"CCc1c(F)ccc2cc(O)cc(-c3c(F)c4nc(OCC5(CF)COC5)nc(N5CC6CCC(C5)N6)c4c4cn(C)nc34)c12 [Example 167, 4-[9-(3,8-diazabicyclo[3.2.1]octan-3-yl)-5-fluoro-7-[[3-(fluoromethyl)oxetan-3-yl]methoxy]-2-methyl-pyrazolo[4,3-f]quinazolin-4-yl]-5-ethyl-6-fluoro-naphthalen-2-ol]"
100 to 10000,≤ 10,"CCc1c(F)ccc2cc(O)cc(-c3c(F)c4nc(OCC5(C#N)CCOC5)nc(N5CC6CCC(C5)N6)c4c4cn(C)nc34)c12 (stereo not drawn) [Example 168, 3-[[9-(3,8-diazabicyclo[3.2.1]octan-3-yl)-4-(8-ethyl-7-fluoro-3-hydroxy-1-naphthyl)-5-fluoro-2-methyl-pyrazolo[4,3-f]quinazolin-7-yl]oxymethyl]tetrahydrofuran-3-carbonitrile]"
100 to 10000,≤ 10,"CCc1c(F)ccc2cc(O)cc(-c3c(F)c4nc(OCC56COC(COC)(C5)C6)nc(N5CC6CCC(C5)N6)c4c4cn(C)nc34)c12 [Example 169, 4-[9-(3,8-diazabicyclo[3.2.1]octan-3-yl)-5-fluoro-7-[[1-(methoxymethyl)-2-oxabicyclo[2.1.1]hexan-4-yl]methoxy]-2-methyl-pyrazolo[4,3-f]quinazolin-4-yl]-5-ethyl-6-fluoro-naphthalen-2-ol]"
≤ 10,≤ 10,"CCc1c(F)ccc2cc(O)cc(-c3c(F)c4nc(OCC5(CN6CCC(C#N)C6)CC5)nc(N5CCOCC(C)(O)C5)c4c4cn(C)nc34)c12 (stereo not drawn) [Example 170, 1-[[1-[[4-(8-ethyl-7-fluoro-3-hydroxy-1-naphthyl)-5-fluoro-9-(6-hydroxy-6-methyl-1,4-oxazepan-4-yl)-2-methyl-pyrazolo[4,3-f]quinazolin-7-yl]oxymethyl]cyclopropyl]methyl]pyrrolidine-3-carbonitrile]"
≤ 10,≤ 10,"CCc1c(F)ccc2cc(O)cc(-c3c(F)c4nc(OCC5(CN6CC(C#N)C6)CC5)nc(N5CCOCC(C)(O)C5)c4c4cn(C)nc34)c12 (stereo not drawn) [Example 171, 1-[[1-[[4-(8-ethyl-7-fluoro-3-hydroxy-1-naphthyl)-5-fluoro-9-(6-hydroxy-6-methyl-1,4-oxazepan-4-yl)-2-methyl-pyrazolo[4,3-f]quinazolin-7-yl]oxymethyl]cyclopropyl]methyl]azetidine-3-carbonitrile]"
≤ 10,≤ 10,"CCc1c(F)ccc2cc(O)cc(-c3c(F)c4nc(OCC5(CN6CCCCC6)CC5)nc(N5CCOCC(C)(O)C5)c4c4cn(C)nc34)c12 (stereo not drawn) [Example 172, 4-[4-(8-ethyl-7-fluoro-3-hydroxy-1-naphthyl)-5-fluoro-2-methyl-7-[[1-(1-piperidylmethyl)cyclopropyl]methoxy]pyrazolo[4,3-f]quinazolin-9-yl]-6-methyl-1,4-oxazepan-6-ol]"
100 to 10000,10 to 100,"Cc1cc2[nH]ncc2c(-c2c(C)c3nc(OCC45CCCN4CC(F)C5)nc(N4CCOCC(C)(O)C4)c3c3cn(C)nc23)c1Cl [Example 173, 4-[4-(5-chloro-6-methyl-1H-indazol-4-yl)-2,5-dimethyl-7-[[(2R,8S)-2-fluoro-1,2,3,5,6,7-hexahydropyrrolizin-8-yl]methoxy]pyrazolo[4,3-f]quinazolin-9-yl]-6-methyl-1,4-oxazepan-6-ol]"
≤ 10,≤ 10,"CCc1c(F)ccc2cc(O)cc(-c3c(F)c4nc(OC[C@@]56CCCN5C[C@H](F)C6)nc(N5C[C@H]6COC[C@H]6C5)c4c4cn(C)nc34)c12 [Example 174, 5-ethyl-6-fluoro-4-[5-fluoro-2-methyl-9-[(3aR,6aS)-1,3,3a,4,6,6a-hexahydrofuro[3,4-c]pyrrol-5-yl]-7-[[(2R,8S)-2-fluoro-1,2,3,5,6,7-hexahydropyrrolizin-8-yl]methoxy]pyrazolo[4,3-f]quinazolin-4-yl]naphthalen-2-ol]"
10 to 100,100 to 10000,"CCc1c(F)ccc2cc(O)cc(-c3c(F)c4nc(OC[C@@]56CCCN5C[C@H](F)C6)nc(N5C[C@H]6COC[C@@H]6C5)c4c4cn(C)nc34)c12 [Example 175, 5-ethyl-6-fluoro-4-[5-fluoro-2-methyl-9-[(3aS,6aS)-1,3,3a,4,6,6a-hexahydrofuro[3,4-c]pyrrol-5-yl]-7-[[(2R,8S)-2-fluoro-1,2,3,5,6,7-hexahydropyrrolizin-8-yl]methoxy]pyrazolo[4,3-f]quinazolin-4-yl]naphthalen-2-ol]"
≤ 10,≤ 10,"CCc1c(F)ccc2cc(O)cc(-c3c(F)c4nc(OC[C@@]56CCCN5C[C@H](F)C6)nc(N5CCCC(C#N)C5)c4c4cn(C)nc34)c12 (stereo partly drawn) [Example 176, 1-[4-(8-ethyl-7-fluoro-3-hydroxy-1-naphthyl)-5-fluoro-2-methyl-7-[[(2R,8S)-2-fluoro-1,2,3,5,6,7-hexahydropyrrolizin-8-yl]methoxy]pyrazolo[4,3-f]quinazolin-9-yl]piperidine-3-carbonitrile]"

# Reference: patent US20260347364A1, “PYRAZOLO[4,3-F]QUINAZOLINE DERIVATIVES AS MODULATORS OF G12D MUTANT KRAS USEFUL FOR THE TREATMENT OF CANCER” (JAZZ PHARMACEUTICALS IRELAND LTD., priority 2023, published 2026)
